Patent US20210251991A1, “SUBSTITUTED 2,2'-BIPYRIMIDINYL COMPOUNDS, ANALOGUES THEREOF, AND METHODS USING SAME” (priority 2018, published 2021)

Each compound was assayed on HBsAg in HepG2.2.15 cells (assay: HBsAg assay: inhibition of HBsAg in HepG2.2.15 cells (chemiluminescence immunoassay of supernatant)). Settings: Hepatitis B virus, HepG2.2.15, 144 h, read-out: sAg EC50, HepG2.2.15 cells, supernatant collected at day 6 after exposure, HBsAg CLIA.
Type: cell-based, hepatitis B virus
Protocol: Inhibition of HBsAg was determined in HepG2.2.15 cells. Cells were maintained in culture medium containing 10% fetal calf serum, […], Glutamine, penicillin/streptomycin. Cells were seeded in 96-well collagen-coated plate at a density of 30,000 cells/well. Serially diluted compounds were added to cells next day at the final DMSO concentration of 0.5%. Cells were incubated with compounds for 2-3 days, after which medium was removed. Fresh medium containing compounds was added to cells for additional 3-4 days. At day 6 after exposure of compounds, supernatant was collected, the HBsAg immunoassay (microplate-based chemiluminescence immunoassay kits, CLIA, Autobio Diagnosics Co., Zhengzhou, China, Catalog #CL0310-2) was used to determine the level of HBsAg according to manufactory instruction. Dose-response curves were generated and the EC50 value (effective concentrations that achieved 50% inhibitory effect) were determined using XLfit software. In addition, cells were seeded at a density of 5,000 cells/well for determination of cell viability in the presence and absence of compounds by using CellTiter-Glo reagent (Promega).

In order of rising EC50:
1. CCC1c2cc(F)c(OC)cc2CN1c1ccnc(-c2ncccn2)n1 (centres unmarked) [Example 63, 2-([2,2′-Bipyrimidin]-4-yl)-1-ethyl-6-fluoro-5-methoxyisoindoline]  21 nM
2. CCC1c2cc(F)c(F)cc2CN1c1nc(-c2ncccn2)ncc1Cl (centres unmarked) [Example 53, 2-(5-Chloro-[2,2′-bipyrimidin]-4-yl)-1-ethyl-5,6-difluoroisoindoline]  30 nM
3. CCC1c2c(OC)ccc(F)c2CCN1c1ccnc(-c2ncccn2)n1 (centres unmarked) [Example 42, 1-Ethyl-5-fluoro-8-methoxy-2-(2-pyrimidin-2-ylpyrimidin-4-yl)-3,4-dihydro-1H-isoquinoline]  62 nM
4. CCC1c2ccc(F)c(OC)c2CCN1c1ccnc(-c2ncccn2)n1 (centres unmarked) [Example 46, 1-Ethyl-6-fluoro-5-methoxy-2-(2-pyrimidin-2-ylpyrimidin-4-yl)-3,4-dihydro-1H-isoquinoline]  130 nM
5. CCC1c2cc(OC)c(OC)cc2CN1c1nc(-c2ncccn2)ncc1NC (centres unmarked) [Example 59, 4-(1-Ethyl-5,6-dimethoxyisoindolin-2-yl)-N-methyl-[2,2′-bipyrimidin]-5-amine]  130 nM
6. CCC1c2ccc(OC)c(OC)c2CCN1c1cnc(-c2ncccn2)nc1 (centres unmarked) [Example 28, 2-([2,2′-Bipyrimidin]-5-yl)-1-ethyl-5,6-dimethoxy-1,2,3,4 Tetrahydroisoquinoline]  180 nM
7. CCC1c2cc(OC)c(OC)cc2CN1c1nc(-c2ncccn2)nc2scnc12 (centres unmarked) [Example 93, 7-(1-Ethyl-5,6-dimethoxy-isoindolin-2-yl)-5-pyrimidin-2-yl-thiazolo[5,4-d]pyrimidine]  200 nM
8. CCC1c2cc(F)c(F)cc2CN1c1nc(-c2ncccn2)ncc1C1CC1 (centres unmarked) [Example 54, 2-(5-Cyclopropyl-[2,2′-bipyrimidin]-4-yl)-1-ethyl-5,6-difluoroisoindoline]  220 nM
9. CCC1c2cc(F)c(OC)cc2CN1c1cnc(C(=O)O)nc1 (centres unmarked) [Example 98, 5-(1-Ethyl-6-fluoro-5-methoxyisoindolin-2-yl)pyrimidine-2-carboxylic Acid]  240 nM
10. CCC1c2cc(OC)c(OC)cc2CN1c1nc(-c2ncccn2)nc2c1CCC2 (centres unmarked) [Example 94, 4-(1-Ethyl-5,6-dimethoxy-isoindolin-2-yl)-2-pyrimidin-2-yl-6,7-dihydro-5H-cyclopenta[d]pyrimidine]  350 nM
11. CC1c2ccc(F)c(F)c2CCN1c1ccnc(-c2ncccn2)n1 (centres unmarked) [Example 36, 2-([2,2′-Bipyrimidin]-4-yl)-5,6-difluoro-1-methyl-1,2,3,4-tetrahydroisoquinoline]  480 nM
12. CCC1c2c(OC)ccc(F)c2CCN1c1cnc(-c2ncccn2)nc1 (centres unmarked) [Example 35, 1-Ethyl-5-fluoro-8-methoxy-2-(2-pyrimidin-2-ylpyrimidin-5-yl)-3,4-dihydro-1H-isoquinoline]  620 nM
13. CCC1c2cc(F)c(O)cc2CN1c1nc(-c2ncccn2)ncc1F (centres unmarked) [Example 75, 1-Ethyl-6-fluoro-2-(5-fluoro-[2,2′-bipyrimidin]-4-yl)isoindolin-5-ol]  700 nM
14. CCC1c2cc(OC)c(OC)cc2CN1c1nc(-c2ncccn2)ncc1C(C)C (centres unmarked) [Example 62, 1-Ethyl-2-(5-isopropyl-[2,2′-bipyrimidin]-4-yl)-5,6-dimethoxyisoindoline]  1000 nM
15. CCC1c2cc(F)c(OC)cc2CCCN1c1ccnc(-c2ncccn2)n1 (centres unmarked) [Example 135, 2-([2,2′-Bipyrimidin]-4-yl)-1-ethyl-8-fluoro-7-methoxy-2,3,4,5-tetrahydro-1H-benzo[c]azepine]  1000 nM
16. COc1cc2c(cc1OC)C1CCC2N1c1nc(-c2ncccn2)ncc1F [Example 87, 9-(5-Fluoro-[2,2′-bipyrimidin]-4-yl)-6,7-dimethoxy-1,2,3,4-tetrahydro-1,4-epiminonaphthalene]  1000 nM
17. CCC1c2cc(F)c(OC)cc2CN1c1ccnc(C(=O)O)n1 (centres unmarked) [Example 96, 4-(1-Ethyl-6-fluoro-5-methoxyisoindolin-2-yl)pyrimidine-2-carboxylic Acid]  1200 nM
18. CC1c2ccccc2CCN1c1ccnc(-c2ncccn2)n1 (centres unmarked) [Example 7, 2-([2,2′-Bipyrimidin]-4-yl)-1-methyl-1,2,3,4-tetrahydroisoquinoline]  1900 nM
19. Fc1cnc(-c2ncccn2)nc1N1C2CCC1c1ccccc12 [Example 86, 9-(5-Fluoro-[2,2′-bipyrimidin]-4-yl)-1,2,3,4-tetrahydro-1,4-epiminonaphthalene]  2400 nM
20. CCC1c2cc(F)c(OC)cc2CN1c1ccnc(C(=O)NS(C)(=O)=O)n1 (centres unmarked) [Example 104, 4-(1-Ethyl-6-fluoro-5-methoxyisoindolin-2-yl)-N-(methylsulfonyl)pyrimidine-2-carboxamide]  5000 nM
21. c1cnc(-c2nccc(N3C4CCC3c3ccccc34)n2)nc1 [Example 82, 9-([2,2′-Bipyrimidin]-4-yl)-1,2,3,4-tetrahydro-1,4-epiminonaphthalene]  9000 nM
22. c1cnc(-c2ncc(N3C4CCC3c3ccccc34)cn2)nc1 [Example 22, 9-([2,2′-Bipyrimidin]-5-yl)-1,2,3,4-tetrahydro-1,4-epiminonaphthalene]  21000 nM
23. COc1cc2c(cc1OC)C(CC(=O)O)N(c1cnc(-c3ncccn3)nc1)CC2 (centres unmarked) [Example 27, 2-(2-([2,2′-Bipyrimidin]-5-yl)-6,7-dimethoxy-1,2,3,4-tetrahydroisoquinolin-1-yl) acetic Acid]  28000 nM
24. O=c1[nH]cccc1-c1nccc(N2CCc3cc(F)c(F)cc3C2)n1 [Example 111, 3-[4-(6,7-Difluoro-3,4-dihydro-1H-isoquinolin-2-yl)pyrimidin-2-yl]pyridin-2-ol]  46000 nM

Same assay, conditions: read-out: sAg EC50; HepG2.2.15 cells, supernatant collected at day 6 after exposure, HBsAg CLIA

In order of falling EC50:
1. CCC1c2cc(F)c(OC)cc2CCN1c1cnc(C(=O)O)nc1 (single isomer, unassigned) [Example 115, 5-(1-Ethyl-7-fluoro-6-methoxy-3,4-dihydro-1H-isoquinolin-2-yl)pyrimidine-2-carboxylic Acid]  6000 nM
2. CCC1c2cc(F)c(F)cc2CN1c1cnc(C(=O)O)nc1 (single isomer, unassigned) [Example 116, 5-(1-Ethyl-5,6-difluoroisoindolin-2-yl)pyrimidine-2-carboxylic Acid]  3000 nM
3. CCC1c2ccc(F)c(F)c2CCN1c1ccnc(-c2ncccn2)n1 (single isomer, unassigned) [Example 41, 1-Ethyl-5,6-difluoro-2-(2-pyrimidin-2-ylpyrimidin-4-yl)-3,4-dihydro-1H-isoquinoline]  2600 nM
4. CCC1c2cc(OC)c(F)c(F)c2CCN1c1cnc(-c2ncccn2)nc1 (single isomer, unassigned) [Example 31, 1-Ethyl-5,6-difluoro-7-methoxy-2-(2-pyrimidin-2-ylpyrimidin-5-yl)-3,4-dihydro-1H-isoquinoline]  1200 nM
5. CCC1c2cc(F)c(OC)cc2CN1c1nc(-c2ncccn2)ncc1OC (single isomer, unassigned) [Example 73, 1-Ethyl-6-fluoro-5-methoxy-2-(5-methoxy-[2,2′-bipyrimidin]-4-yl)isoindoline]  1000 nM
6. CCC1c2ccc(F)c(F)c2CCN1c1ccnc(-c2ncccn2)n1 (single isomer, unassigned) [Example 40, 1-Ethyl-5,6-difluoro-2-(2-pyrimidin-2-ylpyrimidin-4-yl)-3,4-dihydro-1H-isoquinoline]  500 nM
7. CC1c2ccc(F)c(F)c2CCN1c1ccnc(-c2ncccn2)n1 (single isomer, unassigned) [Example 37, 2-([2,2′-Bipyrimidin]-4-yl)-5,6-difluoro-1-methyl-1,2,3,4-tetrahydroisoquinoline]  310 nM
8. CCC1c2cc(F)c(OC)cc2CN1c1ccnc(-c2ncccn2)n1 (single isomer, unassigned) [Example 65, 2-([2,2′-Bipyrimidin]-4-yl)-1-ethyl-6-fluoro-5-methoxyisoindoline]  230 nM
9. CCC1c2cc(F)c(OC)cc2CN1c1cnc(C(=O)O)nc1 (single isomer, unassigned) [Example 100, 5-(1-Ethyl-6-fluoro-5-methoxyisoindolin-2-yl)pyrimidine-2-carboxylic Acid]  200 nM
10. CCC1c2cc(OC)c(F)cc2CN1c1ccnc(-c2ncccn2)n1 (single isomer, unassigned) [Example 78, 2-([2,2′-Bipyrimidin]-4-yl)-1-ethyl-5-fluoro-6-methoxyisoindoline]  98 nM
11. CCC1c2cc(OC)c(OC)cc2CN1c1ccnc(-c2ncccn2)n1 (single isomer, unassigned) [Example 57, 2-([2,2′-Bipyrimidin]-4-yl)-1-ethyl-5,6-dimethoxyisoindoline]  76 nM
12. CCC1c2cc(F)c(OC)cc2CN1c1nc(-c2ncccn2)ncc1F (single isomer, unassigned) [Example 72, 1-Ethyl-6-fluoro-2-(5-fluoro-[2,2′-bipyrimidin]-4-yl)-5-methoxyisoindoline]  67 nM
13. CCC1c2cc(F)c(OC)cc2CCN1c1cnc(-c2ncccn2)nc1 (single isomer, unassigned) [Example 134, 2-(2,2′-Bipyrimidin-5-yl)-1-ethyl-7-fluoro-6-methoxy-1,2,3,4-tetrahydroisoquinoline]  54 nM
14. CCC1c2cc(F)c(OC)cc2CCN1c1ccnc(-c2ncccn2)n1 (single isomer, unassigned) [Example 129, 2-(2,2′-Bipyrimidin-4-yl)-1-ethyl-7-fluoro-6-methoxy-1,2,3,4-tetrahydroisoquinoline]  15 nM
